Measurements taken from patent US7264832B2, “Cyclooxygenase-2 inhibitory withanolide compositions and method” (Board of Trustees of Michigan State University, priority 2002, dated 2007).

Experiments:
[1] = Antioxidant activity: inhibition of Fe2+-initiated lipid peroxidation in large unilamellar vesicles; settings: 100 ppm (100 μg/ml), at 20 min, relative to DMSO control
Experimental: The ability of withanolides to inhibit lipid peroxidation in a model system was used to determine whether they could act as antioxidants. The assay was conducted by using large unilamellar vesicles and peroxidation was initiated by adding Fe^2+.
Antioxidant activity. […] The percentage of inhibition was calculated with respect to DMSO control. All compounds were tested at 100 μg/ml and the positive controls BHA, BHT and TBHQ were tested at 10 μM.

[2] = target: T1, COX-2 enzyme (human PGHS-2) isolated from insect cells (Homo sapiens, UniProt P35354); experiment: Cyclooxygenase enzyme inhibitory assay, COX-2 (initial rate of O2 uptake)
T1 sequence (P35354 18-604): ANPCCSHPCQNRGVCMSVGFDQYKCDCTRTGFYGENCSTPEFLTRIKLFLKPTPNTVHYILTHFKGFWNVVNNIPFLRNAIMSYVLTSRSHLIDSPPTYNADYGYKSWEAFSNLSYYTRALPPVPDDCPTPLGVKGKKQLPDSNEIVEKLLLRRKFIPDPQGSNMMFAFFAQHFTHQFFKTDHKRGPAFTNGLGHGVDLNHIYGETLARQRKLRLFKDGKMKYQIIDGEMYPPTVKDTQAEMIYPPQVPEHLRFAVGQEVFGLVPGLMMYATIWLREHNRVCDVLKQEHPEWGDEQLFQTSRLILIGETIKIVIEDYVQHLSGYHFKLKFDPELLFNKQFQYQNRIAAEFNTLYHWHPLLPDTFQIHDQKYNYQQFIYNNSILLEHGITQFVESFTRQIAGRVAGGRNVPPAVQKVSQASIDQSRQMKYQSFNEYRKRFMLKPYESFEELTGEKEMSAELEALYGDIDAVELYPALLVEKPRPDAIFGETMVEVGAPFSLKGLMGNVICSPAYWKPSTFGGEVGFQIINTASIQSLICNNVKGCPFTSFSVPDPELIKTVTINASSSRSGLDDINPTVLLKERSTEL
Experimental: (§1) The withanolides isolated from the leaves were evaluated for their cyclooxygenase (COX) enzyme inhibitory activity using prostaglandin endoperoxide synthase isozymes-1 (COX-1) and PGHS-2 (COX-2).
(§2) Cyclooxygenase enzyme inhibitory assay. COX-1 enzyme was prepared from ram seminal vesicles and COX-2 enzyme was isolated from insect cells cloned with human PGHS-2 enzyme. The inhibitory effects of test compounds on COX-1 and -2 were measured by monitoring the initial rate of 02 uptake using an oxygen electrode (Instech Laboratories, Plymouth Meeting, Pa.) attached to a biological oxygen monitor (Yellow Spring Instrument, Inc., Yellow Spring, Ohio) at 37° C. The enzymes were diluted (1:1) with Tris buffer (pH 7, 10-15 μl) and the test compounds (100 μg/ml, 10 μl) dissolved in DMSO were added to the assay mixture composed of 3 ml of 0.1 M Tris HCl, pH 7, 1 mmol phenol and 85 μg of hemoglobin. […] The instantaneous inhibition was measured by using Quick Log Data acquisition and control computer software (Strawberry Tree Inc., Sunnyvale, Calif., USA).

[3] = target: T2, COX-1 enzyme (prostaglandin endoperoxide synthase isozyme-1) prepared from ram seminal vesicles (Ovis aries, UniProt P05979); experiment: Cyclooxygenase enzyme inhibitory assay, COX-1 (initial rate of O2 uptake)
T2 sequence (P05979 25-600): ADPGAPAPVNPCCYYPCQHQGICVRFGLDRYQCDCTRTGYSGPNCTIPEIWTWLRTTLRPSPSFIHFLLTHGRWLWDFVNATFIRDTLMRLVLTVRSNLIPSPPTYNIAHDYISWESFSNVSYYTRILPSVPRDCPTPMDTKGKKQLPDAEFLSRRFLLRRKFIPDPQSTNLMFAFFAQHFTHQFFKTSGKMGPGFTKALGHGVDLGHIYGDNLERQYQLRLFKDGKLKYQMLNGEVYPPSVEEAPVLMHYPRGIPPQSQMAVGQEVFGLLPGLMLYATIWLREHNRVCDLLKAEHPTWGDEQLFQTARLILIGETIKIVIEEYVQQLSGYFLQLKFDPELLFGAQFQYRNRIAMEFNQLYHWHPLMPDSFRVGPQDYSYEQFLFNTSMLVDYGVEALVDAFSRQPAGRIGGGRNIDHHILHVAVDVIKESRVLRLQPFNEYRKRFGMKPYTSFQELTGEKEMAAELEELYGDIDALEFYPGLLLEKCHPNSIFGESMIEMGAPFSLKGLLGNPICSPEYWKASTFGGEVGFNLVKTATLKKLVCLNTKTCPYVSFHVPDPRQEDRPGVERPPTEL
Experimental: as §1, §2

| Compound | inhibition of lipid peroxidation [1] | COX-2 enzyme inhibition ([2]; 50 μg/ml) | COX-2 enzyme inhibition ([2]; 100 μg/ml) | also measured |
| --- | --- | --- | --- | --- |
| 4,16-dihydroxy-5β,6β-epoxyphysagulin D [Compound 4] | 40% | 5% |  |  |
| CC1=C(CO)C(=O)O[C@@H]([C@@H](C)[C@H]2CC[C@H]3[C@@H]4C[C@H]5O[C@]56[C@@H](O)C=CC(=O)[C@]6(C)[C@H]4CC[C@]23C)C1 [Compound 6, withaferin A] | did not show activity |  | 39% |  |
| CC1=C(CO)C(=O)O[C@@H]([C@@H](C)[C@H]2CC[C@H]3[C@@H]4CC=C5C[C@@H](O[C@@H]6O[C@H](CO[C@@H]7O[C@H](CO)[C@@H](O)[C@H](O)[C@H]7O)[C@@H](O)[C@H](O)[C@H]6O)C[C@H](O)[C@]5(C)[C@H]4CC[C@]23C)C1 [Compound 12, withanolide IV] | did not show activity |  | 23% |  |
| CC1=C(CO)C(=O)O[C@@H]([C@@H](C)[C@H]2CC[C@H]3[C@@H]4C[C@H]5O[C@]56[C@@H](O)[C@@H](O)CC(=O)[C@]6(C)[C@H]4CC[C@]23C)C1 [Compound 8, viscosalactone B] | did not show activity |  | 35% |  |
| COc1ccc2cc([C@H](C)C(=O)O)ccc2c1 [naproxen, reference compound] |  |  |  | inhibition at 2.5 µg/mL ([2]; read-out: COX-2 inhibition): 95%; inhibition at 2.5 µg/mL ([3]; read-out: COX-1 inhibition): 79% |
| CC1=C(CO[C@@H]2O[C@H](CO)[C@@H](O)[C@H](O)[C@H]2O)C(=O)OC([C@@H](C)[C@H]2CC[C@H]3[C@@H]4C[C@H]5O[C@]56[C@@H](O)[C@@H](O)CC(=O)[C@]6(C)[C@H]4CC[C@]23C)C1 (stereo partly drawn) [Compound 3, 27-O-β-D-glucopyranosyl viscosalactone B] |  | 7% |  |  |
| CC1=C(CO)C(=O)O[C@@H]([C@@H](C)[C@H]2CC[C@H]3[C@@H]4CC=C5C[C@@H](O[C@@H]6O[C@H](CO)[C@@H](O)[C@H](O)[C@H]6O)C[C@H](O)[C@]5(C)[C@H]4CC[C@]23C)C1 [Compound 11, physagulin D] | 55% |  | 14% |  |
| 27-O-β-D-glucopyranosyl physagulin D [Compound 2] |  | 9% |  |  |
| CC1=C(CO)C(=O)OC(C(C)C2CCC3C4CC5OC56C(O)CCC(=O)C6(C)C4CCC23C)C1 (centres unmarked) [Compound 7, 2,3-dihydrowithaferin A] | 5% |  | 27% |  |
| CC(=O)Oc1ccccc1C(=O)O [Aspirin, reference compound] |  |  |  | inhibition at 180 µg/mL ([2]; read-out: COX-2 inhibition): 7%; COX-1 inhibition ([3]; tested at 180 μg/ml): 61% |
| 23,24-dihydrowithaferin A [Compound 9] | did not show activity |  | neither COX-1 nor COX-2 activities | COX-1 activity ([3]; 100 μg/ml): neither COX-1 nor COX-2 activities |
| CC1=C(CO[C@@H]2O[C@H](CO)[C@@H](O)[C@H](O)[C@H]2O)C(=O)O[C@@H]([C@@H](C)[C@H]2CC[C@H]3[C@@H]4C[C@H]5O[C@]56[C@@H](O)C=CC(=O)[C@]6(C)[C@H]4CC[C@]23C)C1 [Compound 10, sitoindoside IX] | 44% |  |  | inhibition at 100 µg/mL ([2]; read-out: COX-2 enzyme inhibition): 13% |
| physagulin D (1→6)-β-D-glucopyranosyl-(1→4)-β-D-glucopyranoside [Compound 1] |  | 15% |  |  |
| 4-(1-hydroxy-2,2-dimethylcyclo-propanone)-2,3-dihydrowithaferin A [Compound 5] | did not show activity | 15% |  |  |
